Data: US4889871A, “Alkoxy-substituted dihydrobenzopyran-2-carboxylate derivatives” (G. D. Searle & Co., priority 1988, dated 1989)
pIC50: −log10 of the molar value. Where two headings read alike, the source gives them in different places.

Assays:
human neutrophils = test: Human neutrophil degranulation assay (LTB4-induced, myeloperoxidase release); format: cell-based; conditions: Table 1, LTB4 (5×10^-8 M)
Description: Neutrophils were purified from venous blood of normal human donors using standard techniques of dextran sedimentation, centrifugation on Ficoll-paque® (Pharmacia) or Histopaque® sterile solution (Sigma) and hypotonic lysis of erythrocytes (Boyum, A., Isolation of Leukocytes From Human Blood: Further Observations. Scand. J. Lab. Clin. Invest., 21 (Suppl. 97): 31, 1968). The purity of isolated neutrophils was >95%.
Neutrophil degranulation was determined by measuring the release of myeloperoxidase activity into the incubation medium. Neutrophils (3×10^6) in 1 ml HBSS solution were preincubated with cytochalasin B (5 μg) at 37° C. for 5 minutes, followed by preincubation with test compounds for 7 minutes. Neutrophils were then incubated for 2 to 20 minutes with either LTB4 (5×10^-8 M) or the chemotactic peptide f-met-leu-phe (5×10^-6 M) to induce degranulation. Following incubation, samples were centrifuged and myeloperoxidase was extracted from the cell pellets by sonication in phosphate buffer containing 0.4% Triton X-100. Triton X-100 was also added to the supernatants to a concentration of 0.4%. The supernatants and the pellet - extracts were then assayed spectrophotometrically for myeloperoxidase activity by determining the rate of decomposition of H2 O2 with o-dianisidine as hydrogen donor as described by Renlund, et al. (Renlund, D. G., MacFarlane, J. L., Christensen, R. D., Lynch, R. E., and Rothstein, G., A Quantitative And Sensitive Method For Measurement Of Myeloperoxidase, Clinical Research 28:75A, 1980). Myeloperoxidase activity released into the supernatant was expressed as the percent of the average total activity (pellet plus supernatant).

guinea pig ileum = biological target: T1, guinea pig ileum (Cavia porcellus, UniProt Q2NNR5); test: LTD4 antagonism in guinea pig ileum (contraction)
T1 construct: from tissue; host or cells: guinea pig ileum segments
T1 sequence (Q2NNR5 1-340): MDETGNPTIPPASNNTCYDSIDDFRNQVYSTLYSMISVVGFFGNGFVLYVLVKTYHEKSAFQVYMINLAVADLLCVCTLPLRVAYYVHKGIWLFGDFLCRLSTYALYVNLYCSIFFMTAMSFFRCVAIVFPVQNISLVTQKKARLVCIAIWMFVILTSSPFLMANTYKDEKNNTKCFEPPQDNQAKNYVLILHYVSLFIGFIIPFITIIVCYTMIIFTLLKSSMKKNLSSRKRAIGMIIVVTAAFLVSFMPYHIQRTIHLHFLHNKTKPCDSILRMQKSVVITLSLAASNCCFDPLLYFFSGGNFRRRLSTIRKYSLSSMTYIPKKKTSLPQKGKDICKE
Description: Fresh segments of guinea pig ileum were suspended in 2 ml. tissue baths containing oxygenated modified Tyrodes solution. […] The ileum segments were washed and rested between exposures to agonist. Following this, the tissues were incubated with a single concentration of test compound and the agonist dose-response procedure was repeated. The dose ration is a measure of the antagonist's ability to shift the agonist dose-response curve to the right. It is derived as the concentration of agonist necessary to reach a given response level in the present (A') versus the absence (A) of antagonist. For example, if the test concentration of compound had no effect on the agonist-induced response (A'=A) the dose-ratio would approximate 1. […] One dose-ratio value is determined for each strip of ileum used to test antagonist. […] Schild analysis examines the linearity of the function described by the dose-ratios written as log (A'/A) versus antagonist concentration. If linearity is confirmed and the slope approximates -1, inhibition is considered to be competitive. […] This value is considered to be a measure of the affinity of the competitive antagonist.

LTD4 receptor = biological target: T2, LTD4 receptor (Cavia porcellus, UniProt Q2NNR5); test: LTD4 receptor binding assay using guinea pig lung membrane preparations
T2 construct: from tissue; host or cells: lung membranes of male Hartley guinea pigs
T2 sequence (Q2NNR5 1-340): T1 sequence (Q2NNR5 1-340)
Description: MEMBRANE PREPARATIONS: For each membrane preparation, 10-11 male Hartley guinea pigs, weighing less than 350 gm, were sacrificed by guillotine. The lungs were rapidly removed and placed in ice-cold 50 mM Trisma 7.0 buffer. After all the lungs were collected, each was probed free of bronchial tissue to at least the level of tertiary branching as observed through a dissecting lamp. The tissue was minced with a razor blade on a damp paper towel and placed into fresh ice-cold Trisma 7.0 buffer. When all the tissues had been processed, they were pooled, drained and weighed. Nine volumes of cold buffer were added and the tissue was polytroned for 6-10 second bursts with a 1 minute cool down period in an ice bath between each burst. The homogenate was filtered through a gauze pad and centrifuged at 1085× g for 15 minutes at 4° C. Supernatants were saved and centrifuged at 40,000× g for 20 minutes at 4° C. This time, supernatants were discarded and the pellets were resuspended in 30-35 ml fresh Trisma 7.0 buffer by 1-10 second bursts with the polytron. The materials were centrifuged again at 40,000× g. Supernatants were again discarded. Each pellet was resuspended again with approximately 7 ml buffer. All this material was pooled into a 100 ml polypropylene container and stirred with a magnetic stirring bar. The tubes were rinsed with small amounts of buffer and the rinse was added to the membrane preparation. The homogenized membranes were aliquoted into 1.5 ml microfuge tubes and frozen at -70° C. Three aliquots were submitted for protein determinations by FPB (fluorescamine protein binding) assay.
Unless otherwise indicated, all binding experiments were performed in a final incubation volume of 250 μl. […] Both materials were received in solutions. […] Both solutions were brought to appropriate assay concentrations by dilution in assay buffer consisting of 50 mM Trisma 7.4 with 5 mM L-cysteine and 20 mM CaCl2. Membranes were also diluted with this assay buffer. […] Diluent was added to all other appropriate control tubes. Incubations were conducted for 30 minutes at 25° C. in a shaking water bath. Termination of the reaction was achieved by pouring the incubate over 2.5 cm Whatman GF/C filters soaked in assay buffer and set over the ports of Millipore filter vacuum manifolds. Filters were rinsed with 4 ml ice cold assay buffer 3 times. The filters were removed, placed in 10 ml Aquasol scintillation cocktail and allowed to cool in the dark for 2 hours prior to counting. All samples were corrected for background and isotope decay before converting DPM determination to mass.
These values were logit-transformed and linear regression was performed on the dose-response data. All dose-response sets used to calculate IC50 values contained data from 3-6 compound concentrations. […] IC50 values were calculated from the regression equation for the line.
male guinea pig lung homogenate which was aliquoted and stored at
-70° C. The particular preparation used to test the compounds of
Protein concentrations in these assays were adjusted
to provide aproximately 0.1 nM receptor in the presence of lnM ^3
HLTD4. Incubation was conducted for 30 min.
at 24° C. and filtration methods were used to separate bound from
tested were intially solubilized in DMSO. Each compound was evaluated at
dose of 10 μM (10^-5 M) in triplicate in 2 separate assays. The

## CCCc1c(OCCCOc2ccc(C(C)=O)c(OC)c2CCC)ccc2c1OC(C(=O)O)CC2 (stereo not shown) [Example 1, 7-[3-(4-acetyl-3-methoxy-2-propylphenoxy)propoxy]-3,4-dihydro-8-propyl-2H-1-benzopyran-2-carboxylic acid]
Human neutrophils
  pIC50: 5.82
Guinea pig ileum; read-out: Guinea Pig Ileum Contraction pA2 (converted)
  Kb: ≥ 316 nM
Guinea pig ileum; relative to Compound III where --OCH3 is replaced with --OH
  less active as an LTD4 antagonist in the guinea pig ileum smooth muscle contraction test: at least 10 ×
LTD4 receptor; Table 1, results are from Table 3, 10^-5 M
  Receptor Binding LTD4 IC50: Inactive
LTD4 receptor; read-out: LTD4 Receptor Binding Activity
  inhibition at 10 µM: < 45%
LTD4 receptor; read-out: LTD4 Receptor Binding Percent Inhibition, Test #1, triplicate, 30 min, 24° C.
  inhibition at 10 µM: 4.07%
LTD4 receptor; read-out: LTD4 Receptor Binding Percent Inhibition, Test #2, triplicate, 30 min, 24° C.
  inhibition at 10 µM: 16.4%
